For assay [1], the system named is Cryptococcus neoformans. The conditions noted are these: Hariri 1976, cited from earlier work.
In assay [2] the test system is Cryptococcus neoformans. The conditions noted are these: Hariri 1976; cited from earlier work.
A further assay deals with Plasmodium species. The conditions noted are these: Hariri 1976; cited from earlier work.
In another assay the test system is Candida albicans (10231). Briefly: Broth dilution assay, F1. The assay is classed as cell-based. Here is the method:
(§1) Both broth dilution and agar dilution assays were used to assess the antifungal activity of the compounds of the invention. The cultures were maintained in Sabouraud dextrose broth (SDB) and diluted with […]. 2.5 l of SDB was prepared and distributed into sterile vessels as follows: 49 ml into 1 vessel, 27 ml into 3 vessels, 45 ml into 2 vessels.
(§2) Five mg/ml concentration of each compound was prepared using DMSO as the solvent; warming and sonication were necessary to dissolve each compound completely. The compounds were then diluted in SDB according to the following protocol:
(§3) 5. 1 ug/ml--5 ml (3)+45 ml SDB
(§4) The compound at each concentration in SDB was then dispensed into 6 tubes each containing 4 ml […]. Controls (without any compound) were also prepared to insure that the solvent itself was not fungicidal or fungistatic.
(§5) Cultures were grown in SDB for 24 h at 30° C. C. albicans and C. neoformans were diluted 1:10 in SDB before inoculation. Inoculation volume for yeasts was 2 drops of diluted cells per tube. The fungal cultures were homogenized before inoculation. The same volume was added, but without dilution. All tubes were incubated at room temperature on a rotating wheel. After 16 h of incubation at room temperature, the fungistatic assay was set up on agar plates. […] Yeasts were inoculated onto SDA (the corresponding agar) plates and fungi onto mycosel agar plates. These plates were then incubated at room temperature.

The test system of the next assay is Candida albicans (14053). Briefly: Broth dilution assay, F2. The class given is cell-based. How it is done:
as §1, §2, §3, §4, §5
For orientation: Dilution methods test growth across graded concentrations, often in twofold steps.

Assay [3] deals with Cryptococcus neoformans (13690). Briefly: Broth dilution assay, F3. The assay is classed as cell-based. Here is the method:
as §1, §2, §3, §4, §5

Assay [4] deals with Epidermophyton floccosum (15693). Briefly: Broth dilution assay, F4. The assay is classed as cell-based. How it is done:
as §1, §2, §3, §4, §5

The subject of assay [5] is Trichophyton mentagrophytes (11481). Briefly: Broth dilution assay, F6. The class given is cell-based. How it is done:
as §1, §2, §3, §4, §5

In assay [6] the test system is Microsporum gypseum (14683). In words: Broth dilution assay, F12. The class given is cell-based. The following applies: Nannizzia gypsea. How it is done: as §1, §2, §3, §4, §5
Assay [7] concerns Penicillium citrinum (9849). In words: Broth dilution assay, F19. The assay is classed as cell-based. Here is the method:
as §1, §2, §3, §4, §5

The next assay has as its system fungi. In words: Broth dilution assay, whole panel. The class given is cell-based. The conditions noted are these: Tables 1 and 2. Here is the method:
as §1, §2, §3, §4
Cultures were grown in SDB for 24 h at 30° C. C. albicans and C. neoformans were diluted 1:10 in SDB before inoculation. Inoculation volume for yeasts was 2 drops of diluted cells per tube. The fungal cultures were homogenized before inoculation. The same volume was added, but without dilution. All tubes were incubated at room temperature on a rotating wheel. After 16 h of incubation at room temperature, the fungistatic assay was set up on agar plates. […] Yeasts were inoculated onto SDA (the corresponding agar) plates and fungi onto mycosel agar plates. […]

The next assay concerns Candida species. The conditions noted are these: with SMX, against Candida; Castaldo 1979; cited from earlier work.

≈ marks a conversion by molar mass, not a printed value. Read-outs that look alike come from different tables or passages of the source.

Turning to `Nc1nc(N)c2cc(NC(=O)Cc3ccc(Cl)c(Cl)c3)ccc2n1` [2,4-diamino-6-(2-(3,4-dichlorophenyl)acetamido)quinazoline], in the assay with Cryptococcus neoformans [1] (C. neoformans), the “minimum inhibitory concentration (MIC)” value is 6 to 8 µg/mL. The in vitro activity entry in the assay on Cryptococcus neoformans [1] (in vitro) is “active in vitro and in vivo”. Also, the in vivo activity entry with Cryptococcus neoformans [2] was “active in vitro and in vivo”. For the same compound, the “activity against Plasmodium” value with Plasmodium species is listed as “no activity”.
Consider `CCCCCCc1ccc2nc(N)nc(N)c2c1C` [--CH2 (CH2)4 CH3, 2,4-Diamino-5-methyl-6-n-hexylquinazoline], for which the MIC with Candida albicans (10231) (Table 1, F1, Sabouraud Dextrose Broth pH 5.5, read-out: Minimum Inhibitory Concentration (S, fungistatic)) worked out at 30 µg/mL (≈ 116 µM); in the assay on Candida albicans (10231) (Table 2, F1, Sabouraud Dextrose Broth pH 5.5, read-out: S Fungistatic), 30 µg/mL (≈ 116 µM); in the assay on Candida albicans (14053) (Table 1, F2, Sabouraud Dextrose Broth pH 5.5, read-out: Minimum Inhibitory Concentration (S, fungistatic)) it was 30 µg/mL (≈ 116 µM); in [3] (Table 1, F3, Sabouraud Dextrose Broth pH 5.5, read-out: Minimum Inhibitory Concentration (S, fungistatic)) it was 3 µg/mL (≈ 11.6 µM); in assay [3] (Table 2, F3, Sabouraud Dextrose Broth pH 5.5, read-out: S Fungistatic) it was 3 µg/mL (≈ 11.6 µM); in assay [4] (Table 1, F4, Sabouraud Dextrose Broth pH 5.5, read-out: Minimum Inhibitory Concentration (S, fungistatic)), 3 µg/mL (≈ 11.6 µM). The MIC came to 30 µg/mL (≈ 116 µM) in assay [5] (Table 1, F6, Sabouraud Dextrose Broth pH 5.5, read-out: Minimum Inhibitory Concentration (S, fungistatic)); 30 µg/mL (≈ 116 µM) in assay [5] (Table 2, F6, Sabouraud Dextrose Broth pH 5.5, read-out: S Fungistatic); 10 µg/mL (≈ 38.7 µM) in [6] (Table 1, Sabouraud Dextrose Broth pH 5.5, read-out: Minimum Inhibitory Concentration (S, fungistatic)); 30 µg/mL (≈ 116 µM) in assay [6] (Table 2, Sabouraud Dextrose Broth pH 5.5, read-out: S Fungistatic); 100 µg/mL (≈ 387 µM) in [7] (Table 1, F19, Sabouraud Dextrose Broth pH 5.5, read-out: Minimum Inhibitory Concentration (S, fungistatic)). Further, the MFC with Candida albicans (10231) (Table 1, F1, Sabouraud Dextrose Broth pH 5.5, read-out: Minimum Lethal Concentration (C, fungicidal)) is 30 µg/mL (≈ 116 µM); with Candida albicans (10231) (Table 2, F1, Sabouraud Dextrose Broth pH 5.5, read-out: C Fungicidal) it was greater than 100 µg/mL; in the assay with Candida albicans (14053) (Table 1, F2, Sabouraud Dextrose Broth pH 5.5, read-out: Minimum Lethal Concentration (C, fungicidal)), 30 µg/mL (≈ 116 µM); in assay [3] (Table 1, F3, Sabouraud Dextrose Broth pH 5.5, read-out: Minimum Lethal Concentration (C, fungicidal)), 10 µg/mL (≈ 38.7 µM); in assay [3] (Table 2, F3, Sabouraud Dextrose Broth pH 5.5, read-out: C Fungicidal) it was 3 µg/mL (≈ 11.6 µM); in assay [4] (Table 2, F4, Sabouraud Dextrose Broth pH 5.5, read-out: C Fungicidal), 30 µg/mL (≈ 116 µM). Also, the MFC in assay [5] (Table 1, F6, Sabouraud Dextrose Broth pH 5.5, read-out: Minimum Lethal Concentration (C, fungicidal)) is greater than 30 µg/mL; in [5] (Table 2, F6, Sabouraud Dextrose Broth pH 5.5, read-out: C Fungicidal), 30 µg/mL (≈ 116 µM); in assay [6] (Table 1, Sabouraud Dextrose Broth pH 5.5, read-out: Minimum Lethal Concentration (C, fungicidal)) it was 30 µg/mL (≈ 116 µM); in assay [6] (Table 2, Sabouraud Dextrose Broth pH 5.5, read-out: C Fungicidal) it was 100 µg/mL (≈ 387 µM); in assay [7] (Table 1, F19, Sabouraud Dextrose Broth pH 5.5, read-out: Minimum Lethal Concentration (C, fungicidal)), 100 µg/mL (≈ 387 µM). Moreover, the “fungicidal and fungistatic activity in words” value with fungi was “best fungicidal and fungistatic activity”.
For `Nc1nc(N)c2c(ccc3c2ccn3CC2CC2)n1` [N-cyclopropylmethyl-5,6-pyrrolo-2,4-diaminoquinazoline], the “synergistic activity in presence of sulfamethoxazole (SMX)” value with Candida species was “synergistic activity”.

These data come from patent US4818753A, “Synthesis and method of use for 2, 4 diaminoquinazoline” (SRI International, priority 1987, dated 1989).
